# Experimental data from US20240000750A1, “METHOD FOR PREPARING CRYSTALLINE PARTICLES OF 1-(3-CYANO-1-ISOPROPYL-INDOLE-5-YL)PYRAZOLE-4-CARBOXYLIC ACID, AND PHARMACEUTICAL COMPOSITION COMPRISING SAME” (LG CHEM, LTD., priority 2020, published 2024).
# Columns and labels:
# Assay type in all cases: physicochemical
# [1] = Bulk density and tapped density of crystalline particles (flowability: Carr index, Hausner ratio)
# Experimental: The tapped density and bulk density were analyzed to analyze flowability and cohesiveness. tapped density means the changed volume when the container is tapped after packing the powder, which means that the voids between particles are reduced. In addition, the porosity can be confirmed by checking the changes in bulk density (apparent density) and tapped density. In general, the flowability and cohesiveness of the granular powder were evaluated using Carr index (CI) (Carr, 1965) and Hausner ratio (HR) (Hausner, 1967).
# The bulk density and tapped density of crystalline particles prepared according to Preparation Examples, Examples and Comparative Examples were measured. The bulk density is the volume when about 50 g of granular powder is put into the measuring cylinder, and the tapped density is the volume when there is no further change in volume after lightly tapping the measuring cylinder on the floor at a constant height 100 times. The bulk density refers to the volume occupied by a certain mass of powder, which refers to the sum of the volume of the powder and the volume of voids between particles as the total volume.
# The flowability and cohesiveness of the granular powder were calculated by the Carr index of Equation (3) and the Hausner ratio of Equation (4) using the bulk density and tapped density measured above according to the method of Jinapong et al (2008). […]
# [2] = Particle size distribution of crystalline particles, wet method, laser diffraction particle size analyzer
# Experimental: The volume average particle distribution and particle size distribution of the crystalline particles prepared in Preparation Examples, Examples and Comparative Examples were measured by a wet method using a laser diffraction particle size analyzer.
# It can be said that the particle size distribution is better as the values of DV10/DV50 and DV50/DV90 used as indicators are larger. Here, DV10, DV50, and DV90 mean particle diameters of particles corresponding to 10%, 50%, and 90% of the total number of particles, respectively, when the measured particles are arranged in order from smallest to largest in particle size.
# [3] = Solubility in organic solvents and water
Flowability and cohesiveness (in words) [1],Particle size distribution (in words) [2],Solubility [3],SMILES
very good,very good,,"CC(C)n1cc(C#N)c2cc(-n3cc(C(=O)O)cn3)ccc21 [Synthesis Example 1-4, 1-(3-cyano-1-isopropyl-indol-5-yl)pyrazole-4-carboxylic acid]"
,,very low,"CC(C)n1cc(C#N)c2cc(-n3cc(C(=O)O)cn3)ccc21 [compound of Formula 1, 1-(3-cyano-1-isopropyl-indol-5-yl)pyrazole-4-carboxylic acid]"
